Measured values: the supplement of paper PMC12463676, “Small-molecule dissolution of stress granules by redox modulation benefits ALS models” (Nature Chemical Biology, 2025)

Columns and labels:
lipoamide = compound: NC(=O)CCCCC1CCSS1 [lipoamide]; test: thermal stability z-score vs DMSO; higher = more thermally stabilized by treatment; conditions: HeLa, lipoamide concentration 100 µM
Protocol: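 Cellular thermal proteome profiling in HeLa cells. Cells were treated with 100 µM lipoamide for 1 h, with or without 1 mM arsenate for a further 1 h, then heated to ten temperatures (37-66.3 °C), and soluble protein was quantified by TMT mass spectrometry relative to 0.1% DMSO controls. The thermal stability score (sum of log2 fold changes minus the abundance score) was transformed to a z-score; mean of n = 3 experiments.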

potassium arsenate = compound: O=[As]([O-])(O)O.[K+] [potassium arsenate]; test: as above; conditions: HeLa; arsenate concentration 1 mM
Protocol: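 Cellular thermal proteome profiling in HeLa cells treated with 1 mM arsenate for 1 h (DMSO pretreatment), heated to ten temperatures (37-66.3 °C). Soluble protein was quantified by TMT mass spectrometry relative to DMSO controls; the thermal stability score was transformed to a z-score; mean of n = 3 experiments.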

[1] = arsenate co-treatment: 1 mM arsenate 1 h
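Further: each temperature applied for 3 min, abundance score taken as mean log2 fold change at the two lowest temperatures, z-score obtained by mean subtraction and division by SD.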

UniProt Q14376, sequence (Q14376 whole entry): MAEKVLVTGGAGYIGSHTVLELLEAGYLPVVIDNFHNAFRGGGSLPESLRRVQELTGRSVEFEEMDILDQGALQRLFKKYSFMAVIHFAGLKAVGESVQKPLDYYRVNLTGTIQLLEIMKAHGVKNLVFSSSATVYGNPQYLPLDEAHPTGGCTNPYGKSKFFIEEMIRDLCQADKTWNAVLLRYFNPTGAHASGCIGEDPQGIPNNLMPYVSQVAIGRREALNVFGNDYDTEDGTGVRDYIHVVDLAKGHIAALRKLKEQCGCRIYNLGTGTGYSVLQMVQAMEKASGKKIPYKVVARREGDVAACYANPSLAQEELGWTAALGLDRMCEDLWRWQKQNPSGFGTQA
UniProt Q4G176, sequence (Q4G176 whole entry): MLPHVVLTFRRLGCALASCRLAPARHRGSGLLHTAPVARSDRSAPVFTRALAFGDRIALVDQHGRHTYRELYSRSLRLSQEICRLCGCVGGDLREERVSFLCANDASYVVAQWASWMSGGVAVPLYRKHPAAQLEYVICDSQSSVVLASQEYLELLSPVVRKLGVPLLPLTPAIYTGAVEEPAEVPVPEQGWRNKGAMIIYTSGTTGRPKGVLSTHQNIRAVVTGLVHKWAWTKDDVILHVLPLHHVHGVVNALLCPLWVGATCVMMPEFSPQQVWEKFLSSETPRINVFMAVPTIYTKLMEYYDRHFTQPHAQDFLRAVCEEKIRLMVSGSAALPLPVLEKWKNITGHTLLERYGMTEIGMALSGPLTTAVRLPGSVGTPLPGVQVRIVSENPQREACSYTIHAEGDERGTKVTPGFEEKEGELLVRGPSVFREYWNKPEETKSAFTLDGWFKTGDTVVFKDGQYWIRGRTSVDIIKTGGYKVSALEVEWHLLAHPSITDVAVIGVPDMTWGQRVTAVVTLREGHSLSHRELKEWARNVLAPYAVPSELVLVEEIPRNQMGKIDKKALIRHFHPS
UniProt Q9NYA1, sequence (Q9NYA1 whole entry): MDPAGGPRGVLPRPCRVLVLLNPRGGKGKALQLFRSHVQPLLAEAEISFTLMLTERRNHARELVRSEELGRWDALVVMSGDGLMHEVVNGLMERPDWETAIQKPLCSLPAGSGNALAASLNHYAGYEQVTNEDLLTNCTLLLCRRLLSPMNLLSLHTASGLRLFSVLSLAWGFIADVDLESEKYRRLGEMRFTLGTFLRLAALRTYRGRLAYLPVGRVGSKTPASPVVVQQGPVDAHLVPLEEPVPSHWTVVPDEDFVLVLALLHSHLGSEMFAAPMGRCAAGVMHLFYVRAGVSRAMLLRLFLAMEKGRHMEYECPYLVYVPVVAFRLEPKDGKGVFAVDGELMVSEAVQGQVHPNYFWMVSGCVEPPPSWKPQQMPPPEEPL
UniProt Q00059, sequence (Q00059 whole entry): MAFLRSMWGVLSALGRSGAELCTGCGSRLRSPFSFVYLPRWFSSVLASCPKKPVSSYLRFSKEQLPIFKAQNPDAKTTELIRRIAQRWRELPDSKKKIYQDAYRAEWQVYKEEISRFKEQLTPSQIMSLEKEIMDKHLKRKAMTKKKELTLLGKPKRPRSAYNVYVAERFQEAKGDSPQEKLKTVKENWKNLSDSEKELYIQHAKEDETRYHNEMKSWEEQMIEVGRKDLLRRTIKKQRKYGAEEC
UniProt Q6L8Q7, sequence (Q6L8Q7 whole entry): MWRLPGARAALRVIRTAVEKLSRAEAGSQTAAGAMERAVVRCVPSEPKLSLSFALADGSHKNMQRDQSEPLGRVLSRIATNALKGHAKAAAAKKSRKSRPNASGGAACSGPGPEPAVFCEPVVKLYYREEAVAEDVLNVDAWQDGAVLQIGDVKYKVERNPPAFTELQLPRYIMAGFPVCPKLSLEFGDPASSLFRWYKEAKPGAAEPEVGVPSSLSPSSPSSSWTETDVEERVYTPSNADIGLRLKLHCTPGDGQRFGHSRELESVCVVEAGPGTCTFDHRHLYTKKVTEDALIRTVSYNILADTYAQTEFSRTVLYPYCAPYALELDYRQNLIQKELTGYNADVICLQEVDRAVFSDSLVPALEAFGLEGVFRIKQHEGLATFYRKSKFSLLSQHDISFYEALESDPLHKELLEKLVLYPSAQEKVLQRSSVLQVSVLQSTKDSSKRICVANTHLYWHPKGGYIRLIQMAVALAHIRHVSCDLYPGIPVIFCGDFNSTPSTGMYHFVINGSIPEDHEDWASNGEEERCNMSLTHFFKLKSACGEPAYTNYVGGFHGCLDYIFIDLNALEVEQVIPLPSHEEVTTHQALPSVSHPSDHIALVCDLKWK
UniProt P49674, sequence (P49674 whole entry, looked up): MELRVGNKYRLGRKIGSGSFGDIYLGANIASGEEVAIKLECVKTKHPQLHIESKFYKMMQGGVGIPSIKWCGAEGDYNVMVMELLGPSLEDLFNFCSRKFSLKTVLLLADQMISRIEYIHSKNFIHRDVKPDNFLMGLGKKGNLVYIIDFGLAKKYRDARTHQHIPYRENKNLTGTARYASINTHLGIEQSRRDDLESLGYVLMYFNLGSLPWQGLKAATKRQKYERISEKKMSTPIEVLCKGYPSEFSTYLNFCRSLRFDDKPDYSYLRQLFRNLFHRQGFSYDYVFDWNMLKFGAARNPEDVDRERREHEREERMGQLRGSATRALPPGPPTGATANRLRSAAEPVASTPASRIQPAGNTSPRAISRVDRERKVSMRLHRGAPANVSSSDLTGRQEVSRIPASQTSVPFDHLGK
UniProt P42566, sequence (P42566 whole entry): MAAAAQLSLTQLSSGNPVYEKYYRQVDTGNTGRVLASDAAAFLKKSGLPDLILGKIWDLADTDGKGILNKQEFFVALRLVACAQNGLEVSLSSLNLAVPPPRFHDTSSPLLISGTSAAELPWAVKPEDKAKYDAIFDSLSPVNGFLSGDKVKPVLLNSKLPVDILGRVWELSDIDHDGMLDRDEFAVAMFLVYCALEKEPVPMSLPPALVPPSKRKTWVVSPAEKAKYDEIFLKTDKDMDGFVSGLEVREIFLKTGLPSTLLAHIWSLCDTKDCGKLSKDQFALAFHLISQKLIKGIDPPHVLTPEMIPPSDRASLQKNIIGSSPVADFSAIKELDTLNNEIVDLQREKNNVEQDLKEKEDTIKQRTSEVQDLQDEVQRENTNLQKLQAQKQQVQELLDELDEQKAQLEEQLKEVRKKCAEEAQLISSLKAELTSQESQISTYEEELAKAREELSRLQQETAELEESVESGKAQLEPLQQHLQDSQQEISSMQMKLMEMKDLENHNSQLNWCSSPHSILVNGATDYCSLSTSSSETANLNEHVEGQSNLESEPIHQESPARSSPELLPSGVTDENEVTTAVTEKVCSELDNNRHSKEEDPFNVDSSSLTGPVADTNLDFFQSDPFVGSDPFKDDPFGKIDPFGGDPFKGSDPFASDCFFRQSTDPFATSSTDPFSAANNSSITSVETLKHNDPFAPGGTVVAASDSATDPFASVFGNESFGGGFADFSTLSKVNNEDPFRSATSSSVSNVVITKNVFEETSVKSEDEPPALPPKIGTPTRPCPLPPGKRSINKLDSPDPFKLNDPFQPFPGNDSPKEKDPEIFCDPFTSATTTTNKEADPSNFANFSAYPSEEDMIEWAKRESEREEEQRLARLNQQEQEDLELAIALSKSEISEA
UniProt Q9NYP7, sequence (Q9NYP7 whole entry): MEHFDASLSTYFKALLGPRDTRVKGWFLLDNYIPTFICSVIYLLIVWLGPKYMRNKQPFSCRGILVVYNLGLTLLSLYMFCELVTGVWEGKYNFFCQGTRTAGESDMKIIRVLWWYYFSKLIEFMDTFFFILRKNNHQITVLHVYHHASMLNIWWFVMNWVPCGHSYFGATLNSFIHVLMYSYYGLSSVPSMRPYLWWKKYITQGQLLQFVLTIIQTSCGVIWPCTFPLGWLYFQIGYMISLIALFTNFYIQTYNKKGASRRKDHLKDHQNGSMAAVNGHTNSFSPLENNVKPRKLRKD
UniProt Q9NX24, sequence (Q9NX24 whole entry): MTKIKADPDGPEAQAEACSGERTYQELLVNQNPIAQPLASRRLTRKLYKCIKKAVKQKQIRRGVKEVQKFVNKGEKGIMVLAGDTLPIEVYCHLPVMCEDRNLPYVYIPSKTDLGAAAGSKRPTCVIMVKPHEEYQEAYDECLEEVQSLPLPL
UniProt Q9BUI4, sequence (Q9BUI4 whole entry): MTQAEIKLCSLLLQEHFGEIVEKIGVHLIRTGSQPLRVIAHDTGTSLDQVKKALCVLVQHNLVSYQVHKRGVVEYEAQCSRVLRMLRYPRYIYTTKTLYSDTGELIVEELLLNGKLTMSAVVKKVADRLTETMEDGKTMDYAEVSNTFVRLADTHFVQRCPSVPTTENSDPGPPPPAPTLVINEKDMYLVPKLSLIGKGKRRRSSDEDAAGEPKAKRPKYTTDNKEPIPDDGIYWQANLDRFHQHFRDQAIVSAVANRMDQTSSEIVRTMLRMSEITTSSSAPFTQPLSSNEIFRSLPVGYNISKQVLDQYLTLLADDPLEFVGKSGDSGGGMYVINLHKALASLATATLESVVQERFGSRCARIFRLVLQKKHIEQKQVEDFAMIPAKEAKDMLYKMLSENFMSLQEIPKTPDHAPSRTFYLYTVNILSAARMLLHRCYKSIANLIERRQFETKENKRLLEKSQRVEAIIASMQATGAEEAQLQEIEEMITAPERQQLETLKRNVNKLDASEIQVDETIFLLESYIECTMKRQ
UniProt Q9ULX3, sequence (Q9ULX3 whole entry): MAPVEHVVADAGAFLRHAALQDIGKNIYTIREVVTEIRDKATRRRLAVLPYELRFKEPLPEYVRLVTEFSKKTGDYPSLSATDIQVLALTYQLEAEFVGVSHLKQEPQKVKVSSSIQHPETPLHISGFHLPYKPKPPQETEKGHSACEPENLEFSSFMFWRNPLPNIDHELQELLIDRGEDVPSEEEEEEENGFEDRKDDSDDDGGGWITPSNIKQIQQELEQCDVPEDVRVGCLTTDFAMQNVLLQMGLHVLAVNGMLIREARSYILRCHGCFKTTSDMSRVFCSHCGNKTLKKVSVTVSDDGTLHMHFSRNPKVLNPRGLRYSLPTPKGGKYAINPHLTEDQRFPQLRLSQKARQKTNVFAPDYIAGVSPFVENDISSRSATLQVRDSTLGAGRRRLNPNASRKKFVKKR

| Target | thermal stability z-score (lipoamide; [1]) | thermal stability z-score (lipoamide; arsenate co-treatment: none) | thermal stability z-score (potassium arsenate) |
| --- | --- | --- | --- |
| NAGA (UniProt P17050) | -0.786 | -0.0771 | 0.546 |
| PANK2 (UniProt Q9BZ23) | 0.583 | 0.588 | 0.53 |
| ELOVL5 (UniProt Q9NYP7) | -0.00466 | -0.551 | 0.0723 |
| UFM1 (UniProt P61960) | 0.193 | 0.534 | 0.181 |
| SPHK1 (UniProt Q9NYA1) | 0.328 | 0.0728 | -0.0222 |
| NAA50 (UniProt Q9GZZ1) | 0.872 | 0.589 | 0.502 |
| TACC3 (UniProt Q9Y6A5) | -0.148 | -0.162 | 0.662 |
| TAB2 (UniProt Q9NYJ8) | 0.0348 | -0.0384 | -0.292 |
| IPO13 (UniProt O94829) | -0.112 | -0.218 | -0.159 |
| ATG101 (UniProt Q9BSB4) | -0.67 | -1.42 | 0.678 |
| CARS (UniProt P49589) | -0.705 | -0.132 | -0.416 |
| TRA2B (UniProt P62995) | 2.37 | -0.56 | -0.649 |
| POLR3C (UniProt Q9BUI4) | 0.213 | 0.0462 | -0.411 |
| ACSF3 (UniProt Q4G176) | -0.68 | 0.39 | 0.298 |
| UniProt F5GYJ5 | 0.464 | 0.437 | 0.166 |
| ANO6 (UniProt Q4KMQ2) | -0.102 | -0.0242 | -0.286 |
| GALE (UniProt Q14376) | 0.0359 | -0.161 | -2.31 |
| CARM1 (UniProt Q86X55) | 0.99 | 0.944 | 0.086 |
| RDH14 (UniProt Q9HBH5) | 1.25 | 0.852 | 1.53 |
| ARPP19 (UniProt P56211) | 0.84 | 0.316 | -0.359 |
| NCOR2 (UniProt Q9Y618) | 0.182 | 0.227 | 0.138 |
| POLD1 (UniProt P28340) | 0.0404 | -0.203 | -0.1 |
| CASC5 (UniProt Q8NG31) | -0.0952 | -0.0158 | 0.219 |
| PPP1R10 (UniProt Q96QC0) | 0.565 | 0.255 | 0.332 |
| CSNK1E (UniProt P49674) | 0.18 | -0.0385 | -0.184 |
| CDH10 (UniProt Q9Y6N8) | 0.493 | 0.14 | 1.02 |
| ILF2 (UniProt Q12905) | 0.0392 | 0.153 | -1.96 |
| TOR3A (UniProt Q9H497) | -1.02 | -0.712 | 0.553 |

| Target | thermal stability z-score (lipoamide; [1]) | thermal stability z-score (lipoamide; arsenate co-treatment: none) | thermal stability z-score (potassium arsenate) |
| --- | --- | --- | --- |
| DAXX (UniProt Q9UER7) | -0.0224 | -0.149 | -0.391 |
| ECHS1 (UniProt P30084) | -0.919 | -0.57 | -1.22 |
| DDX18 (UniProt Q9NVP1) | 0.301 | 0.0191 | -1.26 |
| NHP2 (UniProt Q9NX24) | -0.434 | -0.739 | -0.721 |
| GBE1 (UniProt Q04446) | -0.395 | 0.344 | -0.956 |
| CCDC124 (UniProt Q96CT7) | 0.0112 | -0.0241 | -0.605 |
| RAP1A (UniProt P62834) | 0.141 | -0.173 | -0.254 |
| ACP1 (UniProt P24666) | -0.147 | -0.0266 | -1.2 |
| CEP192 (UniProt Q8TEP8) | -0.251 | -0.467 | 0.0297 |
| NOB1 (UniProt Q9ULX3) | -0.423 | -0.679 | -0.873 |
| IQSEC1 (UniProt Q6DN90) | 0.165 | 0.212 | 0.159 |
| TFAM (UniProt Q00059) | -0.198 | -0.126 | -0.121 |
| ZNF384 (UniProt Q8TF68) | -0.017 | 0.00673 | -0.241 |
| EPS15 (UniProt P42566) | -0.339 | -0.0217 | -0.469 |
| LDAH (UniProt Q9H6V9) | -0.0856 | -0.00844 | 0.0377 |
| GNPDA2 (UniProt Q8TDQ7) | -0.212 | -0.181 | -0.0337 |
| NSUN6 (UniProt Q8TEA1) | -0.141 | -0.366 | -0.526 |
| CDK16 (UniProt Q00536) | 0.0459 | -0.3 | 0.0532 |
| ATP6V0D1 (UniProt P61421) | -0.621 | -0.115 | -0.134 |
| FRYL (UniProt O94915) | -0.0982 | 0.156 | 0.161 |
| RPL11 (UniProt P62913) | 0.156 | 0.371 | -1.44 |
| MSRB3 (UniProt Q8IXL7) | 0.866 | 0.887 | 0.269 |
| CAB39 (UniProt Q9Y376) | 0.454 | 0.641 | -0.245 |
| CRAT (UniProt P43155) | 0.0164 | 0.114 | 0.0734 |
| IK (UniProt Q13123) | 1.25 | 0.908 | 1.75 |
| LTA4H (UniProt P09960) | 0.357 | 0.32 | -0.164 |
| PDE12 (UniProt Q6L8Q7) | 0.274 | 0.272 | -0.746 |
